In ChEMBL document CHEMBL5584246, “Novel dihydropyrimidines as promising EGFR & HER2 inhibitors: Insights from experimental and computational studies” (Eur J Med Chem, 2024):

Legend:
MCF7 = assay: Cytotoxicity against human MCF7 cells assessed as inhibition of cell growth measured after 3 days by MTT assay; type: functional, cell-based; conditions: MCF7, 72 h
[1] = Cytotoxicity against African green monkey Vero cells assessed as inhibition of cell growth measured after 3 days by MTT assay; type: toxicity, cell-based; conditions: African green monkey (Chlorocebus sabaeus)
[2] = Inhibition of EGFR expression in human MCF7 cells assessed as negative expression region (M1) at 25 nM incubated for 24 hrs by flow cytometry analysis (reference value: 0.66%); type: functional
[3] = Inhibition of EGFR expression in human MCF7 cells assessed as negative expression region (M1) at 50 nM incubated for 24 hrs by flow cytometry analysis (reference value: 0.66%); type: functional
[4] = Inhibition of EGFR expression in human MCF7 cells assessed as negative expression region (M1) at 100 nM incubated for 24 hrs by flow cytometry analysis (reference value: 0.66%); type: functional
[5] = Inhibition of EGFR expression in human MCF7 cells assessed as negative expression region (M1) at 500 nM incubated for 24 hrs by flow cytometry analysis (reference value: 0.66%); type: functional
[6] = Inhibition of EGFR expression in human MCF7 cells assessed as negative expression region (M1) at 1000 nM incubated for 24 hrs by flow cytometry analysis (reference value: 0.66%); type: functional
[7] = Inhibition of EGFR expression in human MCF7 cells assessed as positive expression region (M2) at 25 nM incubated for 24 hrs by flow cytometry analysis (reference value: 99.36%); type: functional
[8] = Inhibition of EGFR expression in human MCF7 cells assessed as positive expression region (M2) at 50 nM incubated for 24 hrs by flow cytometry analysis (reference value: 99.36%); type: functional
[9] = Inhibition of EGFR expression in human MCF7 cells assessed as positive expression region (M2) at 100 nM incubated for 24 hrs by flow cytometry analysis (reference value: 99.36%); type: functional
[10] = Inhibition of EGFR expression in human MCF7 cells assessed as positive expression region (M2) at 500 nM incubated for 24 hrs by flow cytometry analysis (reference value: 99.36%); type: functional
[11] = Inhibition of EGFR expression in human MCF7 cells assessed as positive expression region (M2) at 1000 nM incubated for 24 hrs by flow cytometry analysis (reference value: 99.36%); type: functional
[12] = Inhibition of HER2 expression in human MCF7 cells assessed as negative expression region (M1) at 25 nM incubated for 24 hrs by flow cytometry analysis (reference value: 0.98%); type: functional
[13] = Inhibition of HER2 expression in human MCF7 cells assessed as negative expression region (M1) at 50 nM incubated for 24 hrs by flow cytometry analysis (reference value: 0.98%); type: functional
[14] = Inhibition of HER2 expression in human MCF7 cells assessed as negative expression region (M1) at 100 nM incubated for 24 hrs by flow cytometry analysis (reference value: 0.98%); type: functional
[15] = Inhibition of HER2 expression in human MCF7 cells assessed as negative expression region (M1) at 500 nM incubated for 24 hrs by flow cytometry analysis (reference value: 0.98%); type: functional
[16] = Inhibition of HER2 expression in human MCF7 cells assessed as negative expression region (M1) at 1000 nM incubated for 24 hrs by flow cytometry analysis (reference value: 0.98%); type: functional
[17] = Inhibition of HER2 expression in human MCF7 cells assessed as positive expression region (M2) at 25 nM incubated for 24 hrs by flow cytometry analysis (reference value: 99.09%); type: functional
[18] = Inhibition of HER2 expression in human MCF7 cells assessed as positive expression region (M2) at 50 nM incubated for 24 hrs by flow cytometry analysis (reference value: 99.09%); type: functional
[19] = Inhibition of HER2 expression in human MCF7 cells assessed as positive expression region (M2) at 100 nM incubated for 24 hrs by flow cytometry analysis (reference value: 99.09%); type: functional
[20] = Inhibition of HER2 expression in human MCF7 cells assessed as positive expression region (M2) at 500 nM incubated for 24 hrs by flow cytometry analysis (reference value: 99.09%); type: functional
[21] = Inhibition of HER2 expression in human MCF7 cells assessed as positive expression region (M2) at 1000 nM incubated for 24 hrs by flow cytometry analysis (reference value: 99.09%); type: functional

SMILES: COc1ccc(NC(=O)C2=C(C)NC(=S)NC2/C=C\c2ccccc2)c(OC)c1 (configuration not stated)
- IC50 (MCF7): 24.5 µM
- IC50 at 3 days [1]: 47.3 µM

SMILES: COc1ccc(NC(=O)C2=C(C)NC(=O)NC2c2ccccc2)c(OC)c1 (configuration not stated)
- IC50 (MCF7): 38.2 µM
- IC50 at 3 days [1]: 60.4 µM

SMILES: COc1ccc(NC(=O)C2=C(C)NC(=S)NC2c2ccc(Cl)cc2)c(OC)c1 (configuration not stated)
- IC50 (MCF7): 38.7 µM
- IC50 at 3 days [1]: 48.3 µM

SMILES: COc1ccc(NC(=O)C2=C(C)NC(=O)NC2c2ccc(O)cc2)c(OC)c1 (configuration not stated)
- IC50 (MCF7): 29.3 µM
- IC50 at 3 days [1]: 55.2 µM

SMILES: CCOc1cc(C2NC(=O)NC(C)=C2C(=O)Nc2ccc(OC)cc2OC)ccc1O (configuration not stated)
- IC50 (MCF7): 21 µM
- IC50 at 3 days [1]: 58.2 µM

SMILES: COc1ccc(NC(=O)C2=C(C)NC(=S)NC2c2ccc(O)c(OC)c2)c(OC)c1 (configuration not stated)
- IC50 (MCF7): 20.3 µM
- IC50 at 3 days [1]: 42.5 µM

SMILES: COc1ccc(NC(=O)C2=C(C)NC(=O)NC2c2c[nH]c3ccccc23)c(OC)c1 (configuration not stated)
- IC50 (MCF7): 20.2 µM
- IC50 at 3 days [1]: 42.6 µM

SMILES: COc1ccc(NC(=O)C2=C(C)NC(=O)NC2c2ccc(OCc3ccccc3)c(OC)c2)c(OC)c1 (configuration not stated)
- IC50 (MCF7): 9.38 µM
- IC50 at 3 days [1]: 18.4 µM
- inhibition at 0.025 µM [2]: 37.6%
- inhibition at 0.05 µM [3]: 66.7%
- inhibition at 0.1 µM [4]: 84.3%
- inhibition at 0.5 µM [5]: 91.1%
- inhibition at 1 µM [6]: 98.6%
- inhibition at 0.025 µM [7]: 63.2%
- inhibition at 0.05 µM [8]: 33.8%
- inhibition at 0.1 µM [9]: 16.1%
- inhibition at 0.5 µM [10]: 9.15%
- inhibition at 1 µM [11]: 1.49%
- inhibition at 0.025 µM [12]: 57.5%
- inhibition at 0.05 µM [13]: 77.9%
- inhibition at 0.1 µM [14]: 88.7%
- inhibition at 0.5 µM [15]: 95%
- inhibition at 1 µM [16]: 96.9%
- inhibition at 0.025 µM [17]: 43%
- inhibition at 0.05 µM [18]: 22.4%
- inhibition at 0.1 µM [19]: 11.6%
- inhibition at 0.5 µM [20]: 5.16%
- inhibition at 1 µM [21]: 3.21%

SMILES: COc1ccc(NC(=O)C2=C(C)NC(=O)NC2c2ccccc2O)c(OC)c1 (configuration not stated)
- IC50 (MCF7): 30.1 µM
- IC50 at 3 days [1]: 45.3 µM

SMILES: COc1ccc(NC(=O)C2=C(C)NC(=S)NC2c2c[nH]c3ccccc23)c(OC)c1 (configuration not stated)
- IC50 (MCF7): 29.4 µM
- IC50 at 3 days [1]: 50.3 µM

SMILES: CS(=O)(=O)CCNCc1ccc(-c2ccc3ncnc(Nc4ccc(OCc5cccc(F)c5)c(Cl)c4)c3c2)o1 [LAPATINIB]
- IC50 (MCF7): 3.38 µM
- IC50 at 3 days [1]: 19.3 µM
- inhibition at 0.1 µM [4]: 94.3%
- inhibition at 0.1 µM [9]: 5.88%
- inhibition at 0.1 µM [14]: 93%
- inhibition at 0.1 µM [19]: 7.15%

SMILES: COc1ccc(NC(=O)C2=C(C)NC(=S)NC2c2ccc(N(C)C)cc2)c(OC)c1 (configuration not stated)
- IC50 (MCF7): 25.1 µM
- IC50 at 3 days [1]: 53.1 µM

SMILES: COc1ccc(NC(=O)C2=C(C)NC(=S)NC2c2ccco2)c(OC)c1 (configuration not stated)
- IC50 (MCF7): 38.3 µM
- IC50 at 3 days [1]: 45.5 µM

SMILES: COc1ccc(NC(=O)C2=C(C)NC(=O)NC2c2ccco2)c(OC)c1 (configuration not stated)
- IC50 (MCF7): 27.4 µM
- IC50 at 3 days [1]: 62.4 µM

SMILES: COc1ccc(C2NC(=S)NC(C)=C2C(=O)Nc2ccc(OC)cc2OC)cc1 (configuration not stated)
- IC50 (MCF7): 28.1 µM
- IC50 at 3 days [1]: 32.8 µM

SMILES: COc1ccc(NC(=O)C2=C(C)NC(=S)NC2c2ccccc2O)c(OC)c1 (configuration not stated)
- IC50 (MCF7): 32.1 µM
- IC50 at 3 days [1]: 60.4 µM

SMILES: CCOc1cc(C2NC(=S)NC(C)=C2C(=O)Nc2ccc(OC)cc2OC)ccc1O (configuration not stated)
- IC50 (MCF7): 25.3 µM
- IC50 at 3 days [1]: 57.4 µM

SMILES: COc1ccc(NC(=O)C2=C(C)NC(=S)NC2c2ccccc2)c(OC)c1 (configuration not stated)
- IC50 (MCF7): 45.3 µM
- IC50 at 3 days [1]: 53.4 µM

SMILES: COc1ccc(NC(=O)C2=C(C)NC(=O)NC2c2cccc(O)c2)c(OC)c1 (configuration not stated)
- IC50 (MCF7): 30.4 µM
- IC50 at 3 days [1]: 55.7 µM
